Data on one molecule can be found in publication PMC10544575, “Inhibitory mechanism of vortioxetine on CYP450 enzymes in human and rat liver microsomes” (Frontiers in Pharmacology, 2023).

pIC50, pKi: −log10 of the molar value. Where two headings read alike, the source gives them in different places.

One data set deals with CYP2C-2. Put plainly: IC50-shift experiment, CYP2C-2 in RLMs. It counts as in vitro ADME, rat. As to conditions: for IC50 at 30 min: losartan 15 μM.
Details of data set [1]: method as in earlier work. As to conditions: patients with severe liver impairment; single oral dose of 10 mg; ref (2022); cited from earlier work.
In the next data set the target is CYP3A4 (Homo sapiens, UniProt P08684). The data set can be described thus: IC50 of vortioxetine on CYP3A4 (midazolam) in HLMs. The class given is in vitro ADME. Also on record: 0.20 mg/mL HLMs; from tissue; host or cells: human liver microsomes. The procedure: The components of the incubation system were as follows: 0.20 mg/mL HLMs or 0.20 mg/mL RLMs, 0.1 M Tris-HCl, vortioxetine, and the probe substrates of each enzyme. In the study of Km’s (Michaelis–Menten constant) experiment, midazolam (1, 2, 5, 10, 20, 50 and 100 μM in HLMs and RLMs) corresponded to CYP3A4/3A; bupropion (10, 20, 50, 100, 200, 500, 1,000 and 2000 μM in HLMs; 1, 2, 5, 10, 20, 50, 100 and 200 μM in RLMs) corresponded to CYP2B6/2B; amodiaquine (5, 10, 20, 50, 100 and 200 μM in HLMs; 10, 20, 50, 100, 200, 500 μM in RLMs) corresponded to CYP2C8/CYP2C-1; losartan (1, 2, 5, 10, 20, 50, 100, 200 μM in HLMs; 10, 20, 50, 100, 200, 500 and 1,000 μM in RLMs) corresponded to CYP2C9/CYP2C-2; mephenytoin (20, 50, 100, 200, 500 and 1,000 μM in HLMs; 5, 10, 20, 50, 100, 200, 500 and 1,000 μM in RLMs) corresponded to CYP2C19/CYP2C-3; and dextromethorphan (1, 2, 5, 10, 20, 50 and 100 μM in HLMs and RLMs) corresponded to CYP2D6/CYP2D. […]
All experiments results were detected by UPLC-MS/MS, which equipped with a Waters Acquity UPLC system (Milford, MA, United States) and a Waters Xevo TQ-S triple quadrupole tandem mass spectrometer with an electrospray ionization source (Milford, MA, United States). […]
IC50 values and enzyme kinetic parameters were calculated by Graphpad Prism 6.0 (GraphPad software Inc., CA, United States). […] Data for each experiment were expressed as mean ± SD (n = 3).

For the next data set, the target named is T1, CYP2C8 (Homo sapiens, UniProt P10632).
T1 sequence (P10632 1-490): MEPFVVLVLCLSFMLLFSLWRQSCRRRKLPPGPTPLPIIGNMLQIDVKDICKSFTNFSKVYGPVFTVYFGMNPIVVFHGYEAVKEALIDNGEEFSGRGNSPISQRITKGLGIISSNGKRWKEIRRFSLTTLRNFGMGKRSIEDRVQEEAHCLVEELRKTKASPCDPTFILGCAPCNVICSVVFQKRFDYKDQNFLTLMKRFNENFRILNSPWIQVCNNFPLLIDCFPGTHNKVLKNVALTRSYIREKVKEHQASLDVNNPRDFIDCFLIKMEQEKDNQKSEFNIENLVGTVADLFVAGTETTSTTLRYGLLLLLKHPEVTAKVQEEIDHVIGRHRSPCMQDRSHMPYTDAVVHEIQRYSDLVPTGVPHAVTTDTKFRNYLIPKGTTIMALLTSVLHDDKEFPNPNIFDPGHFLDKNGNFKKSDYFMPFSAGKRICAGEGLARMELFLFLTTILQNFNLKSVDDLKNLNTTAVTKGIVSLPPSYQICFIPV
Put plainly: Reversible inhibition kinetics (Lineweaver-Burk), CYP2C8 in HLMs. Also noted: 0.20 mg/mL HLMs or 0.20 mg/mL RLMs; from tissue; host or cells: human liver microsomes. It counts as in vitro ADME. As for the experimental part:
The components of the incubation system were as follows: 0.20 mg/mL HLMs or 0.20 mg/mL RLMs, 0.1 M Tris-HCl, vortioxetine, and the probe substrates of each enzyme. In the study of Km’s (Michaelis–Menten constant) experiment, midazolam (1, 2, 5, 10, 20, 50 and 100 μM in HLMs and RLMs) corresponded to CYP3A4/3A; bupropion (10, 20, 50, 100, 200, 500, 1,000 and 2000 μM in HLMs; 1, 2, 5, 10, 20, 50, 100 and 200 μM in RLMs) corresponded to CYP2B6/2B; amodiaquine (5, 10, 20, 50, 100 and 200 μM in HLMs; 10, 20, 50, 100, 200, 500 μM in RLMs) corresponded to CYP2C8/CYP2C-1; losartan (1, 2, 5, 10, 20, 50, 100, 200 μM in HLMs; 10, 20, 50, 100, 200, 500 and 1,000 μM in RLMs) corresponded to CYP2C9/CYP2C-2; mephenytoin (20, 50, 100, 200, 500 and 1,000 μM in HLMs; 5, 10, 20, 50, 100, 200, 500 and 1,000 μM in RLMs) corresponded to CYP2C19/CYP2C-3; and dextromethorphan (1, 2, 5, 10, 20, 50 and 100 μM in HLMs and RLMs) corresponded to CYP2D6/CYP2D. After 5.0 min of preincubation in the shaking water bath, the reaction was started with the addition of 1.0 mM NADPH. The incubated temperature at 37°C for 30 min. After the incubation, the enzyme reaction was stopped by cooling at −80°C, and 200 μL of acetonitrile and 20 μL of internal standard diazepam (200 ng/mL) were added for protein precipitation. The solution was fully vortexed and centrifuged at 13,000 × rpm for 10 min, and the supernatant was collected for data analysis by UPLC-MS/MS.
The inhibitory mechanism of the inhibitor on the enzyme was generally used by different concentrations of the inhibitor against different concentrations of the probe substrate. The concentrations of the inhibitor and the concentrations of probe substrates in the experiment were estimated based on IC50 and Km values, respectively.
In HLMs, the concentrations of the substrates midazolam, bupropion, amodiaquine, losartan, mephenytoin, and dextromethorphan were 1, 2, 4, 8 μM; 10, 20, 40, 80 μM; 0.8, 1.5, 3, 6 μM; 2, 4, 8, 16 μM; 20, 45, 90, 180 μM; 2.5, 5, 10, 20 μM, respectively. Corresponding to the concentration of vortioxetine were 2, 4, 9, 18 μM; 2, 4, 8, 16 μM; 4, 8, 15, 30 μM; 5, 10, 25, 50 μM; 0.6, 1.2, 2.5, 5 μM; 4.5, 9, 18, 36 μM, respectively.
All experiments results were detected by UPLC-MS/MS, which equipped with a Waters Acquity UPLC system (Milford, MA, United States) and a Waters Xevo TQ-S triple quadrupole tandem mass spectrometer with an electrospray ionization source (Milford, MA, United States). The chromatographic separation was performed on a Waters ACQUITY UPLC BEH C18 column (2.1 × 50 mm, 1.7 μm, Waters Corp.) at 40°C. The mobile phase was consisted of acetonitrile (A) and 0.1% formic acid in water (B). The gradient elution at a flow rate of 0.4 mL/min was conducted as follows: 0–0.5 min, 10% A; 0.5–1.0 min, 10%–90% A; 1.0–2.0 min, 90% A; 2.0–2.1 min, 90%–10% A, and 2.1–3.0 min, 10% A. The relevant analysis parameters were shown in Table 1.
IC50 values and enzyme kinetic parameters were calculated by Graphpad Prism 6.0 (GraphPad software Inc., CA, United States). Lineweaver-Burk Plot was used to determine inhibitor patterns. Dixon plots of Ki values were obtained from the slope of the nonlinear regression line in the Lineweaver-Burk plot as a function of different inhibitor concentrations, while secondary plots for αKi were obtained from the y-intercept of the nonlinear regression line in Lineweaver-Burk Plot versus concentration of different inhibitors. Data for each experiment were expressed as mean ± SD (n = 3).

Chain of CYP3A4 (P08684 whole entry): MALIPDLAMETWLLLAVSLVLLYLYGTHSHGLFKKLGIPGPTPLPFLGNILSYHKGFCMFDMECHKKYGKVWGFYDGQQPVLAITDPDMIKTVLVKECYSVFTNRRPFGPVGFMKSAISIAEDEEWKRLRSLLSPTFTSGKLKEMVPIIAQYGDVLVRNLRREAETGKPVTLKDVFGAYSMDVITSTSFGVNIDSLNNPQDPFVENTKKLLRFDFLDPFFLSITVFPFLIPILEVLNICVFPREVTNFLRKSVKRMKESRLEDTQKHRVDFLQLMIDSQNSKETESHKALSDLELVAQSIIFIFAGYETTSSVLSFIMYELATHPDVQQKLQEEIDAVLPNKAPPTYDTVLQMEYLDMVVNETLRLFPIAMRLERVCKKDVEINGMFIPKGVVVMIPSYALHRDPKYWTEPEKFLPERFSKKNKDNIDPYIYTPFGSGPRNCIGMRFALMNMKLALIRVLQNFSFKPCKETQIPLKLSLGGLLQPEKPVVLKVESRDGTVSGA

In the case of `Cc1ccc(Sc2ccccc2N2CCNCC2)c(C)c1` [vortioxetine], the “activity of CYP2C-2 with the NADPH” value with CYP2C-2 (preincubation with NADPH vs without) is recorded as “significantly increased”. Also, the IC50 (usually the concentration that inhibits the measured activity by half) at 30 min with CYP2C-2 (rat, rat liver microsomes, probe losartan, CYP2C-2, 30 min preincubation with 1.0 mM NADPH) was found to be 37.5 µM. The IC50 at 30 min with CYP2C-2 (rat, rat liver microsomes, probe losartan, CYP2C-2, 30 min preincubation without NADPH) is 8.97 µM. Moreover, the IC50 shift at 30 min with CYP2C-2 (rat, rat liver microsomes, probe losartan, CYP2C-2, ratio IC50 (−) NADPH to IC50 (+) NADPH, read-out: IC50 fold shift) was found to be 0.24. Further, in data set [1], the “AUC(0-t) higher than healthy subjects” value is on record as 10% and the “Cmax lower than healthy subjects” value was 24%. In addition, on CYP3A4 (HLMs 0.20 mg/mL, midazolam at Km, 37°C, 30 min, read-out: IC50), the pIC50 (in general, the IC50 on a negative log10 scale, so that one unit is a factor of ten) was 5.03. On CYP3A4 (inhibitory effect (strength judged by IC50), HLMs), this molecule gave a negative logarithm of the IC50 (pIC50) of 5.00 to 6.00. Besides, at CYP2C8 (amodiaquine), the pKi (commonly the negative decadic logarithm of the Ki, by convention in mol/L) is 5.16 and the α was 1.94. Moreover, the Inhibition type entry at CYP2C8 (amodiaquine, Lineweaver-Burk plot) is reported as “noncompetitive inhibition”. Further, the αKi on CYP2C8 (amodiaquine, secondary plot of y-intercepts) was determined as 13.48 µM. Further, affinity at CYP2C8 (human, human liver microsomes, probe amodiaquine) was put at a Ki at 30 min of 2.96 µM.
